The record followed here is ChEMBL document CHEMBL3045179, “Mode of Action and QSAR Studies of Nitrification Inhibitors” (J Pestic Sci, 1997).

Molecules are shown by their SMILES.

The subject of data set [1] is Nitrosomonas europaea. The data set is described as follows: Inhibition of Nitrosomonas europaea ATCC 25978-mediated nitrification activity assessed as nitrite nitrogen formation at 0.1 mg/kg after 7 to 10 days by Griess-Ilosvay method relative to control. Type of data set: functional. The following applies: values are per cent of control.
The test system of data set [2] is Nitrosomonas sp. TK794. The data set is described as follows: Inhibition of Nitrosomonas sp. TK794-mediated nitrification activity assessed as nitrite nitrogen formation at 1 mg/kg after 7 to 10 days by Griess-Ilosvay method relative to control. Type of data set: functional. On the technique in general: Griess reagent forms a coloured azo dye with nitrite.
The subject of data set [3] is Nitrosomonas europaea. The data set is described as follows: Inhibition of Nitrosomonas europaea ATCC 25978-mediated nitrification activity assessed as nitrite nitrogen formation after 7 to 10 days by Griess-Ilosvay method. It is filed as functional, organism-based. The following applies: read-out: pI50 (converted).
Data set [4] can be described thus: Octanol-water partition coefficient, log P of the compound. It is filed as physicochemical. As to conditions: read-out: logP.
Data set [5] deals with Nitrosomonas sp. TK794. The data set is described as follows: Inhibition of Nitrosomonas sp. TK794-mediated nitrification activity assessed as nitrite nitrogen formation at 5 mg/kg after 7 to 10 days by Griess-Ilosvay method relative to control. Type of data set: functional.
Data set [6] deals with Nitrosomonas europaea. Kind of data set: Inhibition of Nitrosomonas europaea ATCC 25978-mediated nitrification activity assessed as nitrite nitrogen formation at 0.5 mg/kg after 7 to 10 days by Griess-Ilosvay method relative to control. It is filed as functional. As to conditions: values are per cent of control.
In data set [7] the test system is Nitrosomonas sp. TK794. The data set is described as follows: Inhibition of Nitrosomonas sp. TK794-mediated nitrification activity assessed as nitrite nitrogen formation at 0.5 mg/kg after 7 to 10 days by Griess-Ilosvay method relative to control. It is filed as functional.
Data set [8] concerns Nitrosomonas europaea. Kind of data set: Inhibition of Nitrosomonas europaea ATCC 25978-mediated nitrification activity assessed as nitrite nitrogen formation at 1 mg/kg after 7 to 10 days by Griess-Ilosvay method relative to control. It is filed as functional. The following applies: values are per cent of control.
In data set [9] the test system is Nitrosomonas europaea. The data set is described as follows: Inhibition of Nitrosomonas europaea ATCC 25978-mediated nitrification activity assessed as nitrite nitrogen formation at 10 mg/kg after 7 to 10 days by Griess-Ilosvay method relative to control. Type of data set: functional.

As a reminder, the residual activity is the signal under treatment as a percentage of the control signal. One may read the inhibition in vivo as the relative decrease from the control value, in per cent. For orientation: logP means a log measure of how a compound divides between an organic and an aqueous phase. Turning to `Cc1nc(Nc2ccccc2)nc(C(Cl)(Cl)Cl)n1`, in data set [1], the residual activity at 0.1 mg/kg is 66%. Besides, the inhibition in vivo at 1 mg/kg in data set [2] was determined as 39%. For the same compound, the IC50 in [3] is 501 nM. Besides, in data set [4], the lipophilicity (logP) amounted to 4.7.
`Nc1nc(C(Cl)(Cl)Cl)nc(C(Cl)(Cl)Cl)n1`: the inhibition in vivo at 1 mg/kg in data set [2] is 56.2%. Moreover, the logP in [4] was found to be 2.45.
As to `Cc1nc(N)nc(C(Cl)(Cl)Cl)n1`, in data set [5], the inhibition in vivo at 5 mg/kg stood at 42.1%. Besides, the logP in data set [4] was 2.82.
As to `CSc1nc(N)nc(C(Cl)(Cl)Cl)n1`, the inhibition in vivo at 5 mg/kg in data set [5] amounted to 27%. For the same compound, in [3], the IC50 was 1260 nM. Further, the residual activity at 0.5 mg/kg in data set [6] was 65.5%. For the same compound, the lipophilicity (logP) in data set [4] came to 2.96.
On to `CCCCCCNc1nc(C)nc(C(Cl)(Cl)Cl)n1`, for which the residual activity at 0.1 mg/kg in [1] came out at 54.5%. Also, in [3], the IC50 is 417 nM. In [4], the logP amounted to 6.13.
With `CCCOc1nc(SC)nc(C(Cl)(Cl)Cl)n1`, the residual activity at 0.1 mg/kg in [1] came out at 47.6%. The inhibition in vivo at 1 mg/kg in data set [2] was 60%. In addition, the IC50 in data set [3] was 257 nM. The lipophilicity (logP) in [4] was found to be 5.17.
As to `CCCNc1nc(-c2ccccc2)nc(C(Cl)(Cl)Cl)n1`, the residual activity at 0.1 mg/kg in [1] was found to be 50.1%. Moreover, the IC50 in [3] was 389 nM. Further, the lipophilicity (logP) in [4] is 5.75. The inhibition in vivo at 0.5 mg/kg in data set [7] stood at 58.1%.
Turning to `CCCCNc1nc(C)nc(C(Cl)(Cl)Cl)n1`, in [1], the residual activity at 0.1 mg/kg was 79.5%. The IC50 in data set [3] is 1510 nM. The logP in [4] stood at 5.08.
Take `CCOc1nc(C(Cl)(Cl)Cl)nc(C(Cl)(Cl)Cl)n1`: in data set [2], the inhibition in vivo at 1 mg/kg turned out to be 25.8%. The IC50 in data set [3] was 437 nM. Besides, the residual activity at 1 mg/kg in [8] was 27.3%. For the same compound, in data set [4], the logP is 4.14.
In the case of `CCCCCCCCCCNc1nc(C(Cl)(Cl)Cl)nc(C(Cl)(Cl)Cl)n1`, the inhibition in vivo at 10 mg/kg in data set [9] was determined as 36.8%. Also, in [3], the IC50 was 10500 nM. The lipophilicity (logP) in [4] stood at 7.9.
In the case of `CCCCCCCCCNc1nc(C)nc(C(Cl)(Cl)Cl)n1`, the inhibition in vivo at 5 mg/kg in data set [5] was 55%. Moreover, the IC50 in data set [3] was 3020 nM. Further, the residual activity at 1 mg/kg in [8] turned out to be 59%. Moreover, the log partition coefficient (logP) in [4] was 7.72.
Regarding `CCCCN(CC)c1nc(C)nc(C(Cl)(Cl)Cl)n1`, in [1], the residual activity at 0.1 mg/kg is 52.9%. In addition, the IC50 in data set [3] is 955 nM. Besides, the logP in data set [4] amounted to 6.17.
Regarding `CCCCCNc1nc(C(Cl)(Cl)Cl)nc(C(Cl)(Cl)Cl)n1`, the residual activity at 0.1 mg/kg in data set [1] stood at 67.1%. Also, the IC50 in [3] is 1230 nM. For the same compound, in data set [4], the logP was determined as 5.25.
Take `Fc1ccc(Oc2nc(C(Cl)(Cl)Cl)nc(C(Cl)(Cl)Cl)n2)c(Cl)c1`: the inhibition in vivo at 1 mg/kg in data set [2] came to 57.8%. Besides, the IC50 in [3] is 1100 nM. Also, in data set [6], the residual activity at 0.5 mg/kg was 52.2%. Also, in data set [4], the logP amounted to 5.74.
For `CCCNc1nc(C)nc(C(Cl)(Cl)Cl)n1`, in [3], the IC50 is 2000 nM. The residual activity at 1 mg/kg in [8] was 42.9%. Further, in data set [4], the lipophilicity (logP) was found to be 4.56.
Turning to `CCCCN(CCCC)c1nc(C)nc(C(Cl)(Cl)Cl)n1`, in data set [2], the inhibition in vivo at 1 mg/kg was found to be 56.8%. Further, the IC50 in [3] is 2090 nM. Also, the residual activity at 1 mg/kg in data set [8] was 56.2%. Moreover, the logP in [4] amounted to 7.23.
For `Cc1nc(C(Cl)(Cl)Cl)nc(C(Cl)(Cl)Cl)n1`, the IC50 in data set [3] was 708 nM. The residual activity at 0.5 mg/kg in [6] turned out to be 47.2%. The logP in [4] was found to be 4.07. The inhibition in vivo at 0.5 mg/kg in data set [7] is 65%.
Regarding `Cc1nc(N(C)C)nc(C(Cl)(Cl)Cl)n1`, the inhibition in vivo at 1 mg/kg in data set [2] is 58.7%. Further, the logP in data set [4] stood at 4.07.
Take `CCCCNc1nc(C(Cl)(Cl)Cl)nc(C(Cl)(Cl)Cl)n1`: in [1], the residual activity at 0.1 mg/kg was 72.4%. For the same compound, in data set [3], the IC50 was 977 nM. Moreover, the logP in [4] stood at 4.72.
For the compound `CCCNc1nc(C(Cl)(Cl)Cl)nc(C(Cl)(Cl)Cl)n1`, in data set [1], the residual activity at 0.1 mg/kg was 60%. Further, in data set [3], the IC50 was 219 nM. For the same compound, in data set [4], the logP is 4.19.
On to `CCOc1nc(SC)nc(C(Cl)(Cl)Cl)n1`, for which the residual activity at 0.1 mg/kg in [1] is 64.8%. The inhibition in vivo at 1 mg/kg in data set [2] came out at 60%. Besides, the IC50 in data set [3] was 676 nM. Also, in [4], the log partition coefficient (logP) is 4.64.
Turning to `CCCOc1nc(-c2ccccc2)nc(C(Cl)(Cl)Cl)n1`, the inhibition in vivo at 5 mg/kg in data set [5] was 47.9%. The IC50 in [3] was 3390 nM. In addition, the residual activity at 1 mg/kg in data set [8] was 48.5%. The logP in data set [4] was 6.22.
Take `ClC(Cl)(Cl)c1nc(Nc2ccccc2)nc(C(Cl)(Cl)Cl)n1`: the logP in data set [4] was determined as 4.33. In addition, in data set [7], the inhibition in vivo at 0.5 mg/kg stood at 55%.
